Experimental data published in patent US20240131004A1, “FUNCTIONALIZED 1,3-BENZENE DIOLS AND THEIR METHOD OF USE FOR THE TREATMENT OF INFLAMMATION AND PAIN” (KANNALIFE SCIENCES, INC., priority 2021, published 2024).
“Also recorded” adds a separate entry of the source.

Tests used:
[1] = system: dorsal root ganglion (DRG) cultures; test: Alamar Blue cellular viability in DRG cultures, reversal of paclitaxel toxicity; format: cell-based, rat; details: 3 μM paclitaxel
Experimental: At the conclusion of each experiment, sister cultures to those assessed by image analysis were evaluated with either a fluorescent dye-based assays for neuronal viability (6-carboxyfluorescein diacetate, CFDA) or with viability dye Alamar Blue. The preferred dye was Alamar Blue as this assay of viability could be conducted and then the dye washed off the cultures for subsequent fixation and follow-up immunocytochemical assays. […] In addition, a portion of the reductive conversion of resazurin to the highly fluorescent resorufin in the Alamar Blue reagent is attributable to the action of mitochondrial reductases. Because of the need for enhanced sensitivity, the Alamar Blue assay was predominantly used for these studies. Similar results in assessing pharmacological responses were obtained with both assays (see Brenneman et al, 2019).
On every plate, wells without cells were used to provide a blank reading that was used to subtract background fluorescence. For the Alamar Blue viability assay, 10 ul of the dye was added directly to the culture well that contained 100 ul of nutrient medium (Ivanov et al., 2016). Incubation times with the dye ranged from 1-5 hrs., depending on the experimental goals. Fluorescence was measured at an excitation of 530 nm and an emission of 590 on a Cytofluor plate reader.
Referring to FIG. 1, cellular viability, as measured with the viability dye Alamar Blue, is shown with relative fluorescence units (RFU) in dorsal root ganglion (DRG) cultures after treatment with 3 μM paclitaxel for 8 hours followed by 16 hours treatment with various concentrations of KLS-13019. Reference lines are provided to depict the RFU levels for control cultures (medium dash) and cultures pre-treated only with 3 μM paclitaxel (dash-dot-dash) for eight hours. […] To confirm, all treated cultures were continuously exposed to paclitaxel throughout the 24-hour duration of the experiment. […] Each value is the mean of 6 determinations.

GPR55 = test: Cell body GPR55 immunoreactive area in DRG neurons, paclitaxel reversal paradigm, high content imaging; format: cell-based, rat; details: 3 μM paclitaxel, DRG cultures
Experimental: (§1) The GPR55 antibody was obtained from abcam. […] The secondary antibodies were obtained from Life Technologies.
Responses of cell body GPR55 immunoreactive areas (μ^2) of neurons from dorsal root ganglion (DRG) cultures are shown in FIG. 2 after pretreatment with 3 μM paclitaxel for 8 hours followed by 16 hours treatment with various concentrations of KLS-13019. Reference lines are provided to depict the average cell body GPR55 area for control cultures (medium dash) and that of cultures pre-treated only with 3 μM paclitaxel (dash-dot-dash) for eight hours. […] Each value is the mean of 8 determinations. […] All assays were conducted by high content fluorescence imaging (Brenneman et al., 2018 and 2019).

interleukin-6 (IL-6) = test: Interleukin-6 immunoreactive area in cell bodies and neurites of DRG neurons, paclitaxel reversal paradigm; format: cell-based, rat; details: 3 μM paclitaxel, DRG neurons
Experimental: as §1
(§2) Referring to FIG. 3, responses of interleukin-6 (IL-6) immunoreactive (IR) areas (μ^2) in cell bodies (open circles) and neurites (closed circles) of rat DRG neurons from dissociated cultures are shown after pretreatment with 3 μM paclitaxel for 8 hours followed by 16 hours treatment with various concentrations of KLS -13019. Reference lines are provided to depict the average cell body IL-6 area (medium dash) and neurites IL-6 (dash-dot-dash) from control cultures. The zero-concentration data point on both curves depicts values for cultures treated only with 3 μM paclitaxel. […] To confirm, all treated cultures were continuously exposed to paclitaxel throughout the 24-hour duration of the experiment. […] Each value is the mean of 8 determinations. […] All assays were conducted by high content fluorescence imaging (Brenneman et al., 2018 and 2019).

interleukin-1β (IL-1β) = test: Interleukin-1β immunoreactive area in cell bodies and neurites of DRG neurons, paclitaxel reversal paradigm; format: cell-based, rat; details: 3 μM paclitaxel, DRG neurons
Experimental: as §1
as §2, with “Responses” for “Referring to FIG. 3, responses”, “interleukin-1β (IL-1β)” for “interleukin-6 (IL-6)”, “shown in FIG. 4” for “shown”, “pre-treatment” for “pretreatment”, “KLS-13019.” for “KLS -13019.”, “IL-1β” for “IL-6”

human GPR55 = target: T1, human GPR55 (Homo sapiens, UniProt Q9Y2T6); test: PathHunter β-arrestin assay, human GPR55 in CHO-K1 cell line; format: cell-based; details: 10 μM LPI
T1 construct: host or cells: CHO-K1
Experimental: In this assay, agonist-induced activation of GPR55 stimulates binding of β-arrestin to the Pro-link-tagged GPCR and forces complementation of two enzyme fragments, resulting in the formation of an active β-galactosidase enzyme. This interaction leads to an increase in enzyme activity that can be measured using chemiluminescent PathHunter detection reagents. For our application, the GPR55 agonist lysophosphatidylinositol (LPI) was tested from 0.1 nM to 30 μM to increase the relative luminescent signal relative to that of control. […] For the GPR55 antagonism assay, KLS-13019 concentrations ranging from 0.1 nM to 30 μM were tested in the presence of 16 μM LPI. Concentrations of KLS-13019 ranging from 0.1 nM to 30 μM were tested alone for possible effects of agonistic activity on β-arrestin.
A PathHunter β-arrestin assay is shown in FIG. 8 that provides a measure of an antagonist mode assessment of KLS-13019 with a human GPR55 model system (Eurofins). To measure the β-arrestin response to a GPR55 agonist, various concentrations of lysophosphatidylinositol (LPI) were used as shown in the closed circles. […] Based on these findings, 16 μM LPI was incubated with various concentrations of KLS-13019 to test for antagonistic properties (closed inverted triangles). […] All assays were conducted with an N=10.

T1 sequence (Q9Y2T6 whole entry): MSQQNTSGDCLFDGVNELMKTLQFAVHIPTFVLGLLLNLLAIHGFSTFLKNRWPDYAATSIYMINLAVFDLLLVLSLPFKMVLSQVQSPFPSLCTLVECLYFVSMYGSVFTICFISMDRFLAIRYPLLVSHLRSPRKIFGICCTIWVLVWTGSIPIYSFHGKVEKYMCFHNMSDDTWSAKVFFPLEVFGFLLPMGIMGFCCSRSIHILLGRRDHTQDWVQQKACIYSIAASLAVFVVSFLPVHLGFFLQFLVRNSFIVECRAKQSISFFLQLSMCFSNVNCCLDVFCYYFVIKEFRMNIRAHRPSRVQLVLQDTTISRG

Compound | Effect of paclitaxel on cellular viability of DRG cultures [1] | Effect of paclitaxel on cell body GPR55 immunoreactive area (GPR55) | Effect of paclitaxel on IL-6 IR area in cell bodies and neurites (interleukin-6 (IL-6)) | Effect of paclitaxel on IL-1β IR area in cell bodies and neurites (interleukin-1β (IL-1β)) | Agonist signal in β-arrestin assay (human GPR55)
CC(=O)O[C@H]1C(=O)[C@@]2(C)[C@H]([C@H](OC(=O)c3ccccc3)[C@]3(O)C[C@H](OC(=O)[C@H](O)[C@@H](NC(=O)c4ccccc4)c4ccccc4)C(C)=C1C3(C)C)[C@]1(OC(C)=O)CO[C@@H]1C[C@@H]2O [paclitaxel, reference compound] | toxicity | increases in GPR55 area | increases in IL-6 (IR) area | increases in IL-1β (IR) area | 
lysophosphatidylinositol [LPI, reference compound] |  |  |  |  | robust and reproducible signal; also recorded: robust agonist signal
